# From patent publication US8685928B2, “Antagonists of MUC1” (Dana-Farber Cancer Institute, Inc., priority 2010, dated 2014)
# pIC50: −log10 of the molar value. Entries after “also recorded” stand apart in the source; their conditions may differ. Positions of bridges follow the written chain, without caps; N, C: chain ends. Non-standard residues stand in square brackets, D forms with d. Residues, ends and D or L forms follow the SMILES beside them.
# Tests used:
# H1975 Lung cancer cells = assay: Inhibition of cell proliferation, trypan blue exclusion (Table 2); assay type: cell-based, human; conditions: 5 μM peptide every day, 6-day treatment
# Experimental: (§1) Cells (ZR-75-1 breast carcinoma or H-1975 non-small cell lung carcinoma) were plated separately in 24-well plates for 24 hours prior to treatment with different peptides. The cells were then treated with 5 μM (final concentration) of different peptides every day for 4-6 days. On the day of termination, cells were washed two times with PBS and trypsinized with 0.3 ml of Trypsin/EDTA. Cell growth media was used to stop the trypsin reaction. Following washing, the cells were centrifuged and the cell pellets were re-suspended in PBS for counting in hemacytometer.
# (§2) The trypan blue dye exclusion method was used to determine the number of viable cells present in a cell suspension. Cell suspension was mixed as 1:1 with the trypan blue dye and then visually examined in a hemacytometer. A viable cell will have a clear cytoplasm whereas a non-viable/dead cell will be stained with trypan blue dye. By doing this trypan blue exclusion method, viable cell numbers were counted and percent inhibition of proliferation was then calculated comparing with untreated controls.
# [1] = Pivotal repeat-dose rat toxicity study; assay type: in vivo; conditions: for Safety margin: human starting dose lower than NOAEL: 3 mg/m^2 human starting dose
# Experimental: (§3) The proposed clinical trial will be a multicenter, open-label, dose-escalation, safety, pharmacodynamic and pharmacokinetic study in patients with advanced solid tumors administered GO-203-2c IV over 60 min once per day for 21 consecutive days; this dosing regimen will be repeated every 28 days. Since the majority of the treatment-related findings in rats and dogs were localized at the infusion site or were secondary to the infusion site reactions, the no-observed-adverse-effect-level (NOAEL) for systemic toxicity in the pivotal repeat-dose rat toxicity study was determined to be 5 mg/kg/day. The highest non-severely toxic dose (HNSTD), which was also considered the NOAEL, was established as 1 mg/kg/day in the dog pivotal repeat-dose toxicity study. For vascular injury at the injection site, the NOAEL in rats is […]. This concentration rate is 25-fold greater than the estimated concentration rate for humans (0.83 μg/mL/min) at the recommended starting dose of 3 mg/m2/day (assumes a body mass of 1.65 m2).
# MUC1-CD = MUC1-CD oligomerization in transfected HEK 293T cells, species comparison; assay type: cell-based; conditions: MUC1-CD from rat, dog and human compared
# Experimental: Studies were also conducted to confirm pharmacological relevance of the rodent and nonrodent species chosen for toxicology studies, namely the rat and dog, respectively. MUC1-CD amino acid sequence was determined to be greater than 80% identical between rat, dog and human proteins, and similar expression of MUC1 was found in stomach, intestinal and lung epithelium from the different species using immunohistochemical staining. […] The results of these studies indicate that potential MUC1-CD targets in the rat, dog and human are similar with respect to sequence, tissue expression and responsiveness to inhibition of oligomerization by GO-203-2c, and confirm pharmacological relevance of the species chosen for nonclinical safety assessment of GO-203-2c.
# adrenergic α1B receptor = adrenergic α1B receptor (Homo sapiens, UniProt P35368); assay: biochemical
# [2] = test system: ZR-75-1 human breast carcinoma xenograft; assay: ZR-75-1 human breast carcinoma xenograft model, daily dosing for 21 days; assay type: in vivo, mouse; conditions: nu/nu mice
# Experimental: Efficacy of GO-203-2c was evaluated in a ZR-75-1 human breast carcinoma xenograft model. Female nu/nu mice (20-30 g; Charles River Laboratories, Wilmington, Mass.) were injected in the thigh with 5 million ZR-75-1 cells in Matrigel suspension. Mice also received subcutaneous 17-β-estradiol pellets. When tumors reached 100-200 mm^3 in size (approximately 12-15 days after implantation), mice were split into 4 groups of 5 mice and administered the following treatments daily for 21 days: phosphate-buffered saline (PBS) IP, 1 mg/kg GO-203-2c IV, 4 mg/kg GO-203-2c IV or 4 mg/kg control peptide CP-3 IV. Each animal was sacrificed when the tumor reached the predetermined endpoint size (˜2500 mm^3) or when the animals remained tumor-free for 180 days after implantation of the tumor cells.
# [3] = Dog pivotal repeat-dose toxicity study; assay type: in vivo; conditions: for Safety margin: human starting dose lower than NOAEL: 3 mg/m^2 human starting dose
# Experimental: as §3
# [4] = test system: A549 non-small cell lung carcinoma xenograft; assay: A549 non-small cell lung carcinoma xenograft model; assay type: in vivo, mouse; conditions: for Tumor response: 7.5 mg/kg
# Experimental: Male BALB/c nu/nu mice (6-7 weeks old; Charles River Laboratories, Wilmington, Mass.) were injected with 5 million A549 or PC3 cells in the right thigh. When tumors reached a predetermined size (approximately 80-100 mm^3; 10-16 days after tumor cell implantation), treatment was initiated as follows: Group 1, saline control (daily×21 days); Group 2, GO-203-2c (7.5 mg/kg, 5 days on/2 days off×3 cycles); Group 3, GO-203-2c (7.5 mg/kg, daily×21 days). In the A549 study, Group 3 animals that still had palpable/measurable tumors at the end of the 21-day treatment period were administered an additional 9 days of GO-203-2c treatment (Group 3′), with a one week interim period between treatments.
# [5] = test system: human carcinoma cell lines
# Experimental: A series of in vitro and in vivo primary pharmacodynamic studies was conducted to assess efficacy and mechanism of action of GO-203-2c in human tumor cells.
# GO-203-2 and GO-203-2c were evaluated for ability to inhibit proliferation of murine and human carcinoma cell lines in vitro. Test compound (5 μM final concentration) was added to tumor cell cultures daily for 5 to 6 days, and cell viability was determined by trypan blue dye exclusion.
# [6] = test system: ZR-75-1 Breast cancer cells; assay: Inhibition of cell proliferation, trypan blue exclusion (Table 1); assay type: cell-based, human; conditions: 5 μM peptide every day, 6-day treatment
# Experimental: as §1, §2
# Sequence of adrenergic α1B receptor (P35368 whole entry): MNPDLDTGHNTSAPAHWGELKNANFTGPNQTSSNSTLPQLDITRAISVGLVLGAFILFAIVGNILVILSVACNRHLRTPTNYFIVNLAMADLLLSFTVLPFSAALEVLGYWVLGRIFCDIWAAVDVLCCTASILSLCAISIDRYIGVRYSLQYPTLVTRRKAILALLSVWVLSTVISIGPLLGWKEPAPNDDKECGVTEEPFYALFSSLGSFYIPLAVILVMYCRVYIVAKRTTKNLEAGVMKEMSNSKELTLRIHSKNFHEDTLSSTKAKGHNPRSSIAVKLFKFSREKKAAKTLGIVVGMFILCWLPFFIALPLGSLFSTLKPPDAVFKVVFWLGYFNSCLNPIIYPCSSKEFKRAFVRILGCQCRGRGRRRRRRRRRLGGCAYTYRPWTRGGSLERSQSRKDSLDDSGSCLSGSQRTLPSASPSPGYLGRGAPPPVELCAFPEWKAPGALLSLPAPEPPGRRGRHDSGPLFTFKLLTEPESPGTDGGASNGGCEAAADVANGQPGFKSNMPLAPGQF
smiles,measurement,setting,value
"CC(=O)N[C@H](CCCNC(=N)N)C(=O)N[C@H](CCCNC(=N)N)C(=O)N[C@H](CCCNC(=N)N)C(=O)N[C@H](CCCNC(=N)N)C(=O)N[C@H](CCCNC(=N)N)C(=O)N[C@H](CCCNC(=N)N)C(=O)N[C@H](CCCNC(=N)N)C(=O)N[C@H](CCCNC(=N)N)C(=O)N[C@H](CCCNC(=N)N)C(=O)N[C@@H]1CSSC[C@H](C(=O)N[C@H](CCCNC(=N)N)C(=O)N[C@H](CCCNC(=N)N)C(=O)N[C@H](CCCCN)C(=O)N[C@H](CC(N)=O)C(N)=O)NC(=O)[C@@H](CCC(N)=O)NC1=O [GO-203-2c, Ac-(D)Arg-(D)Arg-(D)Arg-(D)Arg-(D)Arg-(D)Arg-(D)Arg-(D)Arg-(D)Arg-(D)Cys-(D)Gln-(D)Cys-(D)Arg-(D)Arg-(D)Lys-(D)Asn-NH2 disulfide] (Ac-[dR][dR][dR][dR][dR][dR][dR][dR][dR][dC][dQ][dC][dR][dR][dK][dN]-NH2; disulfide 10-12)",Avg (viable cell number of Groups 1-3),H1975 Lung cancer cells,7.2
same,% inhibition,H1975 Lung cancer cells; vs untreated control,60.7%
same,"Group-1 (viable cell number, individual well)","H1975 Lung cancer cells; well having 10,000 cells",8.47
same,"Group-2 (viable cell number, individual well)","H1975 Lung cancer cells; well having 10,000 cells",7.13
same,"Group-3 (viable cell number, individual well)","H1975 Lung cancer cells; well having 10,000 cells",6.02
same,Rat injection-site NOAEL concentration rate relative to estimated human concentration rate (0.83 μg/mL/min),[1]; human starting dose of 3 mg/m2/day,25 fold
same,NOAEL,"[1]; in vivo, rat, repeat-dose IV, read-out: NOAEL for systemic toxicity",5 mg/kg/day
same,NOAEL (systemic),"[1]; rat, body surface area basis",30 mg/m2/day
same,Safety margin: human starting dose lower than NOAEL,"[1]; rat, mg/kg basis",62 fold
same,Safety margin: human starting dose lower than NOAEL,"[1]; rat, mg/m^2 basis",10 fold
same,NOAEL for vascular injury at the injection site (concentration rate),[1]; rats,20.8 µg/mL/min
same,Inhibition of MUC1-CD oligomerization,MUC1-CD,in an equivalent manner
same,pIC50,adrenergic α1B receptor,5.10 to 5.52
same,Tumor response,[2]; 1 mg/kg IV daily for 21 days,Partial tumor regression
same,Tumor response,[2]; 4 mg/kg IV daily for 21 days,complete regression of tumor growth
same,HNSTD or NOAEL,[3]; body surface area basis,20 mg/m2/day
same,NOAEL,"[3]; in vivo, repeat-dose IV, read-out: Highest non-severely toxic dose (HNSTD), also considered the NOAEL",1 mg/kg/day
same,Safety margin: human starting dose lower than NOAEL,[3]; mg/kg basis,12 fold
same,Safety margin: human starting dose lower than NOAEL,[3]; mg/m^2 basis,6.7 fold
same,Tumor response,[4]; 5 days on/2 days off x 3 cycles,"tumor growth arrest during the treatment period, but the tumors resumed growth; also recorded: started growing steadily after day 9"
same,Tumor response,[4]; daily x 21 days,slowed down tumor growth substantially
same,Tumor response after re-dosing,[4]; additional 9 days of treatment from day 29,somewhat stabilized with a very slow growth
same,Average tumor size on day 29,"[4]; daily x 21 days group after 7 days of rest, at start of re-dosing",~900 mm^3
same,50% inhibition (IC50) of proliferation,[5],5 to 11 mg/L
same,pIC50,[5],5.30 to 5.70
same,Avg (viable cell number of Groups 1-3),[6],9.83
same,% inhibition,[6]; vs untreated control,58.69%
same,"Group-1 (viable cell number, individual well)","[6]; well having 10,000 cells",9.18
same,"Group-2 (viable cell number, individual well)","[6]; well having 10,000 cells",11.22
same,"Group-3 (viable cell number, individual well)","[6]; well having 10,000 cells",8.55
